Experimental data from patent US10954232B2, “Pyrazole derivative as ALK5 inhibitor and uses thereof” (HANMI PHARMACEUTICAL CO., LTD., priority 2016, dated 2021).

Target: T1, ALK5 kinase (Homo sapiens, UniProt P36897)
T1 construct: GST; purchased Thermo Fisher Scientific Solutions
T1 sequence (P36897 34-503): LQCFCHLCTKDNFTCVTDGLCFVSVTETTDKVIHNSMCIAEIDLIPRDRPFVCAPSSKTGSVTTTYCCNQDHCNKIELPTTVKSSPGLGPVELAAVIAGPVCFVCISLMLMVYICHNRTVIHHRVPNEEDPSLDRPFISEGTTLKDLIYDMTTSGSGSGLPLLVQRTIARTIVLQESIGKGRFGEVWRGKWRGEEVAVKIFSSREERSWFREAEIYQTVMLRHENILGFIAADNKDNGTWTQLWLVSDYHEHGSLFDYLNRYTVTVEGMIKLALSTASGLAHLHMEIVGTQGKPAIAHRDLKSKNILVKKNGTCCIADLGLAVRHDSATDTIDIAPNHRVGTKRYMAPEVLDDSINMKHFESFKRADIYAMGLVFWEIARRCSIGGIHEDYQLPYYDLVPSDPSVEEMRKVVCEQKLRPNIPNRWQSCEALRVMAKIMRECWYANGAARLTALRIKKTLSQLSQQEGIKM
Assay: Activity inhibition test on ALK5 enzyme (LanthaScreen Eu binding kinase assay)
Settings: kinase tracer 178, 60 minutes at room temperature
Summary of the method: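 IC50 is the concentration giving 50% inhibition relative to control, taken from fluorescence after 60 min stirring at room temperature. Final mix held kinase 5 nM, Eu-GST binding antibody 2 nM and tracer 178 10 nM. Compounds were serially diluted from 1 μM to 0.0001 μM.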

Row | IC50 [nM] | SMILES
1 | 0.7 | Cc1cccc(-n2nc(C(=O)Nc3ccc(O)cc3)cc2-c2ccc3ncsc3c2)n1 [Example 83, 5-(benzo[d]thiazol-6-yl)-N-(4-hydroxyphenyl)-1-(6-methylpyridin-2-yl)-1H-pyrazole-3-carboxyamide]
2 | 3.9 | Cc1cccc(-n2nc(C(=O)Nc3cccc(CO)c3)cc2-c2ccc3ncsc3c2)n1 [Example 84, 5-(benzo[d]thiazol-6-yl)-N-(3-(hydroxymethyl)phenyl)-1-(6-methylpyridin-2-yl)-1H-pyrazole-3-carboxyamide]
3 | 3.8 | Cc1cccc(-n2nc(C(=O)Nc3ccc(CO)cc3)cc2-c2ccc3ncsc3c2)n1 [Example 85, 5-(benzo[d]thiazol-6-yl)-N-(4-(hydroxymethyl)phenyl)-1-(6-methylpyridin-2-yl)-1H-pyrazole-3-carboxyamide]
4 | 1.1 | Cc1cccc(-n2nc(C(=O)Nc3ccc(N)cc3)cc2-c2ccc3ncsc3c2)n1 [Example 86, N-(4-aminophenyl)-5-(benzo[d]thiazol-6-yl)-1-(6-methylpyridin-2-yl)-1H-pyrazole-3-carboxyamide]
5 | 9.1 | CCCCNc1ccc(NC(=O)c2cc(-c3ccc4ncsc4c3)n(-c3cccc(C)n3)n2)cc1 [Example 87, 5-(benzo[d]thiazol-6-yl)-N-(4-(butylamino)phenyl)-1-(6-methylpyridin-2-yl)-1H-pyrazole-3-carboxyamide]
6 | 3.5 | Cc1cccc(-n2nc(C(=O)Nc3ccc(NC4CC4)cc3)cc2-c2ccc3ncsc3c2)n1 [Example 88, 5-(benzo[d]thiazol-6-yl)-N-(4-(cyclopropylamino)phenyl)-1-(6-methylpyridin-2-yl)-1H-pyrazole-3-carboxyamide]
7 | 3.5 | Cc1cccc(-n2nc(C(=O)Nc3ccc(S(C)(=N)=O)cc3)cc2-c2ccc3ncsc3c2)n1 (stereo not shown) [Example 89, 5-(benzo[d]thiazol-6-yl)-1-(6-methylpyridin-2-yl)-N-(4-(S-methylsulfonimidoyl)phenyl)-1H-pyrazole-3-carboxyamide]
8 | 10 to 100 | COc1cccc(NC(=O)c2cc(-c3ccc4ncnn4c3)n(-c3cccc(C)n3)n2)c1 [Example 91, 5-([1,2,4]triazolo[1,5-α]pyridin-6-yl)-N-(3-methoxyphenyl)-1-(6-methylpyridin-2-yl)-1H-pyrazole-3-carboxyamide]
9 | 3.9 | Cc1cccc(-n2nc(C(=O)Nc3ccc(O)cc3)cc2-c2ccc3ncnn3c2)n1 [Example 93, 5-([1,2,4]triazolo[1,5-α]pyridin-6-yl)-N-(4-hydroxyphenyl)-1-(6-methylpyridin-2-yl)-1H-pyrazole-3-carboxyamide]
10 | ~10 | Cc1cccc(-n2nc(C(=O)Nc3ccc(OC(C)C)cc3)cc2-c2ccc3ncnn3c2)n1 [Example 94]
11 | 25 | COCCOc1ccc(NC(=O)c2cc(-c3ccc4ncnn4c3)n(-c3cccc(C)n3)n2)cc1 [Example 95, 5-([1,2,4]triazolo[1,5-α]pyridin-6-yl)-N-(4-(2-methoxyethoxy)phenyl)-1-(6-methylpyridin-2-yl)-1H-pyrazole-3-carboxyamide]
12 | 3.5 | Cc1cccc(-n2nc(C(=O)Nc3ccc4c(c3)OCO4)cc2-c2ccc3ncnn3c2)n1 [Example 96, 5-([1,2,4]triazolo[1,5-α]pyridin-6-yl)-N-(benzo[d][1,3]dioxol-5-yl)-1-(6-methylpyridin-2-yl)-1H-pyrazole-3-carboxyamide]
13 | 10 to 100 | COc1ccc(NC(=O)c2cc(-c3ccc4ncnn4c3)n(-c3cccc(C)n3)n2)c(F)c1 [Example 97, 5-([1,2,4]triazolo[1,5-α]pyridin-6-yl)-N-(2-fluoro-4-methoxyphenyl)-1-(6-methylpyridin-2-yl)-1H-pyrazole-3-carboxyamide]
14 | 5.3 | COc1ccc(NC(=O)c2cc(-c3ccc4ncnn4c3)n(-c3cccc(C)n3)n2)cc1F [Example 98, 5-([1,2,4]triazolo[1,5-α]pyridin-6-yl)-N-(3-fluoro-4-methoxyphenyl)-1-(6-methylpyridin-2-yl)-1H-pyrazole-3-carboxyamide]
15 | ~10 | Cc1cccc(-n2nc(C(=O)Nc3ccccc3OC(F)(F)F)cc2-c2ccc3ncnn3c2)n1 [Example 99, 5-([1,2,4]triazolo[1,5-α]pyridin-6-yl)-1-(6-methylpyridin-2-yl)-N-(2-(trifluoromethoxy)phenyl)-1H-pyrazole-3-carboxyamide]
16 | 10 to 100 | Cc1cccc(-n2nc(C(=O)Nc3cccc(OC(F)(F)F)c3)cc2-c2ccc3ncnn3c2)n1 [Example 100, 5-([1,2,4]triazolo[1,5-α]pyridin-6-yl)-1-(6-methylpyridin-2-yl)-N-(3-(trifluoromethoxy)phenyl)-1H-pyrazole-3-carboxyamide]
17 | 10 to 100 | Cc1cccc(-n2nc(C(=O)Nc3ccc(OC(F)(F)F)cc3)cc2-c2ccc3ncnn3c2)n1 [Example 101, 5-([1,2,4]triazolo[1,5-α]pyridin-6-yl)-1-(6-methylpyridin-2-yl)-N-(4-(trifluoromethoxy)phenyl)-1H-pyrazole-3-carboxyamide]
18 | 10 to 100 | Cc1cccc(-n2nc(C(=O)Nc3cccc(N(C)C)c3)cc2-c2ccc3ncnn3c2)n1 [Example 102, 5-([1,2,4]triazolo[1,5-α]pyridin-6-yl)-N-(3-(dimethylamino)phenyl)-1-(6-methylpyridin-2-yl)-1H-pyrazole-3-carboxyamide]
19 | 9.1 | Cc1cccc(-n2nc(C(=O)Nc3ccc(N)cc3)cc2-c2ccc3ncnn3c2)n1 [Example 103, 5-([1,2,4]triazolo[1,5-α]pyridin-6-yl)-N-(4-aminophenyl)-1-(6-methylpyridin-2-yl)-1H-pyrazole-3-carboxyamide]
20 | 7 | Cc1cccc(-n2nc(C(=O)Nc3ccc(N(C)C)cc3)cc2-c2ccc3ncnn3c2)n1 [Example 104, 5-([1,2,4]triazolo[1,5-α]pyridin-6-yl)-N-(4-(dimethylamino)phenyl)-1-(6-methylpyridin-2-yl)-1-H-pyrazole-3-carboxyamide]
21 | 7 | Cc1cccc(-n2nc(C(=O)Nc3ccc(N4CCCC4)cc3)cc2-c2ccc3ncnn3c2)n1 [Example 105, 5-([1,2,4]triazolo[1,5-α]pyridin-6-yl)-N-(4-(pyrrolidin-1-yl)phenyl)-1-(6-methylpyridin-2-yl)-1H-pyrazole-3-carboxyamide]
22 | 14 | Cc1cccc(-n2nc(C(=O)Nc3ccc(N(C)CCN(C)C)cc3)cc2-c2ccc3ncnn3c2)n1 [Example 106, 5-([1,2,4]triazolo[1,5-α]pyridin-6-yl)-N-(4-((2-(dimethylamino)ethyl)(methyl)amino)phenyl)-1-(6-methylpyridin-2-yl)-1H-pyrazole-3-carboxyamide]
23 | 10 to 100 | Cc1cccc(-n2nc(C(=O)Nc3ccc(N4CCN(C)CC4)cc3)cc2-c2ccc3ncnn3c2)n1 [Example 107, 5-([1,2,4]triazolo[1,5-α]pyridin-6-yl)-N-(4-(4-methylpiperazin-1-yl)phenyl)-1-(6-methylpyridin-2-yl)-1H-pyrazole-3-carboxyamide]
24 | ~10 | CC(=O)N1CCN(c2ccc(NC(=O)c3cc(-c4ccc5ncnn5c4)n(-c4cccc(C)n4)n3)cc2)CC1 [Example 108, 5-([1,2,4]triazolo[1,5-α]pyridin-6-yl)-N-(4-(4-acetylpiperazin-1-yl)phenyl)-1-(6-methylpyridin-2-yl)-1H-pyrazole-3-carboxyamide]
25 | 10 to 100 | CC(=O)Nc1ccc(NC(=O)c2cc(-c3ccc4ncnn4c3)n(-c3cccc(C)n3)n2)cc1 [Example 110, 5-([1,2,4]triazolo[1,5-α]pyridin-6-yl)-N-(4-acetamidophenyl)-1-(6-methylpyridin-2-yl)-1H-pyrazole-3-carboxyamide]
26 | > 100 | Cc1cccc(-n2nc(C(=O)Nc3ccc(CN(C)C)cc3)cc2-c2ccc3ncnn3c2)n1 [Example 111, 5-([1,2,4]triazolo[1,5-α]pyridin-6-yl)-N-(4-((dimethylamino)methyl)phenyl)-1-(6-methylpyridin-2-yl)-1H-pyrazole-3-carboxyamide]
27 | 10 to 100 | CNC(=O)c1ccccc1NC(=O)c1cc(-c2ccc3ncnn3c2)n(-c2cccc(C)n2)n1 [Example 112, 5-([1,2,4]triazolo[1,5-α]pyridin-6-yl)-N-(2-(methylcarbamoyl)phenyl)-1-(6-methylpyridin-2-yl)-1H-pyrazole-3-carboxyamide]
28 | 10 to 100 | CNC(=O)c1ccc(NC(=O)c2cc(-c3ccc4ncnn4c3)n(-c3cccc(C)n3)n2)cc1 [Example 113, 5-([1,2,4]triazolo[1,5-α]pyridin-6-yl)-N-(4-(methylcarbamoyl)phenyl)-1-(6-methylpyridin-2-yl)-1H-pyrazole-3-carboxyamide]
29 | 9.5 | Cc1cccc(-n2nc(C(=O)Nc3ccccc3)cc2-c2ccc3ncnn3c2)n1 [Example 114, 5-([1,2,4]triazolo[1,5-α]pyridin-6-yl)-1-(6-methylpyridin-2-yl)-N-phenyl-1H-pyrazole-3-carboxyamide]

Row | SMILES | IC50 [nM]
30 | COc1ccccc1NC(=O)c1cc(-c2ccc3ncnn3c2)n(-c2cccc(C)n2)n1 [Example 90, 5-([1,2,4]triazolo[1,5-α]pyridin-6-yl)-N-(2-methoxyphenyl)-1-(6-methylpyridin-2-yl)-1H-pyrazole-3-carboxyamide] | 5
31 | COc1ccccc1NC(=O)c1cc(-c2ccc3ncnn3c2)n(-c2cccc(C)n2)n1 [Example 92, 5-([1,2,4]triazolo[1,5-α]pyridin-6-yl)-N-(2-methoxyphenyl)-1-(6-methylpyridin-2-yl)-1H-pyrazole-3-carboxyamide] | 10 to 100
